In the assay the target is T1, cathepsin H (Homo sapiens, UniProt P09668).
T1 sequence (P09668 98-335): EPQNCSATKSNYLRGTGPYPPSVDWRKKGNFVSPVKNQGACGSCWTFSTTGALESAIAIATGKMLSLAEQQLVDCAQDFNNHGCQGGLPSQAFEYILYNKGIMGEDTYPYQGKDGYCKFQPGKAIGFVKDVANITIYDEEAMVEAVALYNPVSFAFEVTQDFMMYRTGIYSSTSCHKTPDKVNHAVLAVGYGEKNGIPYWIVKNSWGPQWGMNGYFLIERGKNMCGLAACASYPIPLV
Nature of the assay: Selectivity: Ki against cathepsin H, substrate R-AMC. It counts as biochemical. The method, then:
Activation buffer used with cathepsin L was 100 mM acetate buffer, pH 5.5 with 0.1 % PEG, 5 mM DTT and 1.5 mM EDTA and with cathepsin H was 100 mM phosphate buffer, pH 6.8 with 0.1 % PEG, 5 mM DTT and 1.5 mM EDTA. Table II. Ki values for 5-nitro-8-hydroxyquinoline determined against cathepsins B, L and H.

In the case of `O=[N+]([O-])c1ccc(O)c2ncccc12` [Compound 1, 5-nitro-8-hydroxyquinoline], the Mechanism of inhibition entry is on record as “mixed”. Moreover, the Ki (substrate R-AMC, pH 6.8) is 220.8 ± 2.1 µM.

The term Ki denotes a dissociation constant, usually derived from enzyme kinetics or from competition with a known ligand. Low readings indicate tighter binding, high ones weaker binding.

Values taken from EP2353599A1, “8-hydroxyquinolines as inhibitors of cathepsin B” (University of Ljubljana, priority 2010, dated 2011).
